Laboratory results from patent US11084800B2 (Achillion Pharmaceuticals, Inc., priority 2017, dated 2021).
pIC50: −log10 of the molar value.

target: Human Factor D (Homo sapiens (Human), UniProt P00746); assay: Human Factor D Assay; assay type: biochemical; conditions: Factor D inhibition, assay of Example 10; read-out: IC5 (Stars)
Method in brief: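 Serum-purified Factor D (80 nM final) preincubated 5 min at room temperature with compound in 50 mM Tris, 1 M NaCl, pH 7.5. Z-L-Lys-SBz and DTNB added at 100 μM each; A405 followed every 30 s for 30 min. IC50 from nonlinear regression of rates versus concentration.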

Sequence of Human Factor D (P00746 26-253): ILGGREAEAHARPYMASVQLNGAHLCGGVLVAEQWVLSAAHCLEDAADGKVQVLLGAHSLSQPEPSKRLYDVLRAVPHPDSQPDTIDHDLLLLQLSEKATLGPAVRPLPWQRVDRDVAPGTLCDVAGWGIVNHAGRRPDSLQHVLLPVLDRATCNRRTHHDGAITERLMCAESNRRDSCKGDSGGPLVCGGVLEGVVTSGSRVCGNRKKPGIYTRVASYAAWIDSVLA

Row | Structure (SMILES) | pIC50
1 | CC(=O)c1nn(CC(=O)N2C[C@](C)(F)C[C@H]2C(=O)Nc2nc(Br)ccc2C)c2c(C)nc(-c3cnc(C)nc3)cc12 [Compound 432, (2S,4R)-1-(2-(3-acetyl-7-methyl-5-(2-methylpyrimidin-5-yl)-1H-pyrazolo[3,4-c]pyridin-1-yl)acetyl)-N-(6-bromo-3-methylpyridin-2-yl)-4-fluoro-4-methylpyrrolidine-2-carboxamide] | > 6.00
2 | CC(=O)c1nn(CC(=O)N2C[C@H]3C[C@H]3[C@H]2C(=O)Nc2nc(Br)ccc2C)c2c(C(C)C)nc(-c3cnc(C)nc3)cc12 [Compound 388, (1R,25,5S)-3-(2-(3-acetyl-7-isopropyl-5-(2-methylpyrimidin-5-yl)-1H-pyrazolo[3,4-c]pyridin-1-yl)acetyl)-N-(6-bromo-3-methylpyridin-2-yl)-3-azabicyclo[3.1.0]hexane-2-carboxamide] | > 6.00
3 | CC(=O)c1nn(CC(=O)N2[C@H](C(=O)Nc3nc(Br)ccc3C)C[C@@]3(CN4CC5(CC5)C4)C[C@@H]23)c2c(C)cc(-c3cnc(C)nc3)cc12 [Compound 366, (1R,3S,5R)-5-(5-azaspiro[2.3]hexan-5-ylmethyl)-2-(2-(3-acetyl-7-methyl-5-(2-methylpyrimidin-5-yl)-1H-indazol-1-yl)acetyl)-N-(6-bromo-3-methylpyridin-2-yl)-2-azabicyclo[3.1.0]hexane-3-carboxamide] | > 6.00
4 | CC(=O)c1nn(CC(=O)N2[C@H](C(=O)Nc3nc(Br)ccc3C)C[C@@]3(C)C[C@@H]23)c2ccc(-c3ccc(C)cn3)cc12 [Compound 453, (1R,3S,5R)-2-(2-(3-acetyl-5-(5-methylpyridin-2-yl)-1H-indazol-1-yl)acetyl)-N-(6-bromo-3-methylpyridin-2-yl)-5-methyl-2-azabicyclo[3.1.0]hexane-3-carboxamide] | > 6.00
5 | CC(=O)c1nn(CC(=O)N2[C@H](C(=O)Nc3cc(C)cc(Br)n3)C[C@@]3(C)C[C@@H]23)c2ccc(-c3cnc(C)nc3)cc12 [Compound 492, (1R,3S,5R)-2-(2-(3-acetyl-5-(2-methylpyrimidin-5-yl)-1H-indazol-1-yl)acetyl)-N-(6-bromo-4-methylpyridin-2-yl)-5-methyl-2-azabicyclo[3.1.0]hexane-3-carboxamide] | > 6.00
6 | Cc1ncc(-c2ccc3c(c2)c(C(C)(C)C#N)nn3CC(=O)N2[C@H](C(=O)Nc3nc(Br)ccc3C)C[C@@]3(C)C[C@@H]23)cn1 [Compound 368, (1R,3S,5R)-N-(6-bromo-3-methylpyridin-2-yl)-2-(2-(3-(2-cyanopropan-2-yl)-5-(2-methylpyrimidin-5-yl)-1H-indazol-1-yl)acetyl)-5-methyl-2-azabicyclo[3.1.0]hexane-3-carboxamide] | < 5.00

same assay, conditions: Table 6; Factor D 80 nM, substrate Z-L-Lys-SBz; read-out: IC50

Row | Structure (SMILES) | pIC50
7 | CC(=O)c1nn(CC(=O)N2C3CC3(CN)C[C@H]2C(=O)Nc2nc(Br)ccc2C)c2ccc(-c3cnc(C)nc3)cc12 (stereo partly drawn) [Compound 26, (3S)-2-(2-(3-Acetyl-5-(2-methylpyrimidin-5-yl)-1H-indazol-1-yl)acetyl)-5-(aminomethyl)-N-(6-bromo-3-methylpyridin-2-yl)-2-azabicyclo[3.1.0]hexane-3-carboxamide] | 5.00 to 6.00
8 | Cc1ncc(-c2ccc3c(c2)c(C(C)O)nn3CC(=O)N2[C@H](C(=O)Nc3nc(Br)ccc3C)C[C@@]3(C)C[C@@H]23)cn1 (stereo partly drawn) [Compound 72, (1R,3S,5R)-N-(6-bromo-3-methylpyridin-2-yl)-2-(2-(3-(1-hydroxyethyl)-5-(2-methylpyrimidin-5-yl)-1H-indazol-1-yl)acetyl)-5-methyl-2-azabicyclo[3.1.0]hexane-3-carboxamide] | 5.00 to 6.00

same assay, conditions: Table 8; Factor D 80 nM, substrate Z-L-Lys-SBz; read-out: IC50

Row | Structure (SMILES) | pIC50
9 | CCC(C)NC(=O)c1nn(CC(=O)N2[C@H](C(=O)Nc3nc(Br)ccc3C)C[C@@]3(C)C[C@@H]23)c2ccc(-c3cnc(C)nc3)cc12 (stereo partly drawn) [Compound 569, 1-(2-((1R,3S,5R)-3-((6-bromo-3-methylpyridin-2-yl)carbamoyl)-5-methyl-2-azabicyclo[3.1.0]hexan-2-yl)-2-oxoethyl)-N-(sec-butyl)-5-(2-methylpyrimidin-5-yl)-1H-indazole-3-carboxamide] | 5.00 to 6.00
